Reference: patent US11219221B2 (FarmHannong Co., Ltd., priority 2017, dated 2022)

Assays:
[1] = system: transgenic A. thaliana (CyPPO16, CyPPO17 and variants); experiment: Herbicide spray test on Arabidopsis (T1); format: in vivo, Arabidopsis thaliana; settings: 1 μM spray (100 ml, 0.24 m^2), 4-week-old T1 plants
Excerpt: A. thaliana was transformed with a binary vector having ORF of a selectable marker, Bar gene (glufosinate-tolerant gene), and ORF of each mutant gene of CyPPO16 and CyPPO17. The transgenic plant was examined for cross-tolerance towards glufosinate and PPO-inhibiting herbicides. The bar gene was also used to examine whether the transgene was stably inherited during generations. NOS promoter and E9 terminator were used for bar gene expression.
In order to express proteins of CyPPO16, CyPPO16 variants, CyPPO17, and CyPPO17 variants in plants, a CaMV35S promoter and a NOS terminator were used. Encoding genes of CyPPO16, CyPPO16 variants, CyPPO17, and CyPPO17 variants were introduced into binary vector using Xhol and BamHI restriction enzymes. Furthermore, for confirmation of the protein expression, hemagglutinin (HA) tag was fused to the C-terminal region of PPO protein coding gene using BamHI and Sad restriction enzymes. In addition, in order to transit protein to chloroplast, transit peptide (TP) gene (SEQ ID NO: 90) of AtPPO1 gene (SEQ ID NO: 89) was fused to N-terminal region of PPO protein coding gene using Xbal and Xhol restriction enzymes.
Transgenic plants were screened with glufosinate tolerance which was conferred by Bar gene expression in the binary vector. […]

[2] = molecular target: Spirulina subsalsa PPO CyPPO16 (SEQ ID NO: 1) variant L327T (MBP fusion); experiment: PPO enzyme inhibition (IC50), MBP-fused PPO; format: biochemical; settings: 50 μM protoporphyrinogen IX, pH 8.0, room temperature, 30 min
Method: (§1) Thus, PPO proteins of wild type and variants were expressed as fused to MBP and were used for experiments.
(§2) The following process for purification of PPO protein was performed in a 4° C. cold room. Amylose resin (NEB) was packed to 1.5×15 cm column (Bio-Rad, Econo Columns 1.5×15 cm, glass chromatography column, max. vol), and the obtained protein extracts were loaded to the column at a flow rate of 0.2 ml/min. The column was washed with 3 column volumes of buffer and the presence of protein in the washing solution was examined. When the protein was no longer detected, the washing procedure was terminated. Then, the MBP-PPO protein was eluted with approximately 2 column volumes of buffer containing 20 mM maltose. The protein concentration of each eluent was determined and the elution was stopped when the protein was no longer detected. Ten microliter of each fraction was investigated for protein quantification and SDS-PAGE analysis. The highly pure fractions of PPO protein variants were used for the enzyme assay.
(§3) Since protoporphyrinogen IX, a substrate of PPO protein, was not commercially available, it was chemically synthesized in the laboratory. Overall process was performed in dark under nitrogen stream. […] of protoporphyrin IX was dissolved in 20 ml of 20% (v/v) EtOH, and stirred under dark condition for 30 minutes. The obtained protoporphyrin IX solution was put into a 15 ml screw tube in an amount of 800 μl, and flushed with nitrogen gas for 5 minutes. To this, 1.5 g of sodium amalgam was added and vigorously shaken for 2 minutes. The lid was opened to exhaust hydrogen gas in the tube. Thereafter, the lid was closed and incubated for 3 minutes. The protoporphyrinogen IX solution was filtered using syringe and cellulose membrane filter. […] To determine the enzyme activity of PPO protein, a reaction mixture was prepared with the following composition (based on 10 ml): 50 mM Tris-Cl (pH 8.0); 50 mM NaCl; 0.04% (v/v) Tween 20; 40 mM glucose (0.072 g); 5 units glucose oxidase (16.6 mg); and 10 units catalase (1 μl).
(§4) Hundred and eighty microliters of a reaction mixture containing the purified PPO protein were placed in 96 well plates and 20 μl of […] were added. […] The reaction proceeded at room temperature for 30 min and the fluorescence of protoporphyrin IX was measured using Microplate reader (Sense, Hidex) (excitation: 405 nm; emission: 633 nm). […] To this, 2.7 N HCl was added, and the absorbance at 408 nm was measured. A standard curve was generated using standard protoporphyrin IX, and PPO activity was measured by calibration of protoporphyrin IX using the standard curve of protoporphyrin IX.

[3] = molecular target: Spirulina subsalsa PPO CyPPO16, wild type, SEQ ID NO: 1 (MBP fusion); experiment: PPO enzyme inhibition (IC50), MBP-fused PPO; format: biochemical; settings: 50 μM protoporphyrinogen IX, pH 8.0, room temperature, 30 min
Method: as §1, §2, §3, §4

[4] = molecular target: Spirulina subsalsa PPO CyPPO16 (SEQ ID NO: 1) variant F324V (MBP fusion); experiment: PPO enzyme inhibition (IC50), MBP-fused PPO; format: biochemical; settings: 50 μM protoporphyrinogen IX, pH 8.0, room temperature, 30 min
Method: as §1, §2, §3, §4

[5] = molecular target: Spirulina subsalsa PPO CyPPO16 (SEQ ID NO: 1) variant V305M (MBP fusion); experiment: PPO enzyme inhibition (IC50), MBP-fused PPO; format: biochemical; settings: 50 μM protoporphyrinogen IX, pH 8.0, room temperature, 30 min
Method: as §1, §2, §3, §4

[6] = molecular target: Thermosynechococcus sp. NK55a PPO CyPPO17 (SEQ ID NO: 3) variant F323V (MBP fusion); experiment: PPO enzyme inhibition (IC50), MBP-fused PPO; format: biochemical; settings: 50 μM protoporphyrinogen IX, pH 8.0, room temperature, 30 min
Method: as §1, §2, §3, §4

[7] = molecular target: Thermosynechococcus sp. NK55a PPO CyPPO17 (SEQ ID NO: 3) variant A166C (MBP fusion); experiment: PPO enzyme inhibition (IC50), MBP-fused PPO; format: biochemical; settings: 50 μM protoporphyrinogen IX, pH 8.0, room temperature, 30 min
Method: as §1, §2, §3, §4

[8] = molecular target: Spirulina subsalsa PPO CyPPO16 (SEQ ID NO: 1) variant A162C (MBP fusion); experiment: PPO enzyme inhibition (IC50), MBP-fused PPO; format: biochemical; settings: 50 μM protoporphyrinogen IX, pH 8.0, room temperature, 30 min
Method: as §1, §2, §3, §4

[9] = molecular target: Thermosynechococcus sp. NK55a PPO CyPPO17 (SEQ ID NO: 3) variant F160A (MBP fusion); experiment: PPO enzyme inhibition (IC50), MBP-fused PPO; format: biochemical; settings: 50 μM protoporphyrinogen IX, pH 8.0, room temperature, 30 min
Method: as §1, §2, §3, §4

[10] = molecular target: Spirulina subsalsa PPO CyPPO16 (SEQ ID NO: 1) variant F156A (MBP fusion); experiment: PPO enzyme inhibition (IC50), MBP-fused PPO; format: biochemical; settings: 50 μM protoporphyrinogen IX, pH 8.0, room temperature, 30 min
Method: as §1, §2, §3, §4

[11] = molecular target: Spirulina subsalsa PPO CyPPO16 (SEQ ID NO: 1) variant A162L (MBP fusion); experiment: PPO enzyme inhibition (IC50), MBP-fused PPO; format: biochemical; settings: 50 μM protoporphyrinogen IX, pH 8.0, room temperature, 30 min
Method: as §1, §2, §3, §4

[12] = molecular target: Spirulina subsalsa PPO CyPPO16 (SEQ ID NO: 1) variant V160C (MBP fusion); experiment: PPO enzyme inhibition (IC50), MBP-fused PPO; format: biochemical; settings: 50 μM protoporphyrinogen IX, pH 8.0, room temperature, 30 min
Method: as §1, §2, §3, §4

[13] = molecular target: Spirulina subsalsa PPO CyPPO16 (SEQ ID NO: 1) variant R85A (MBP fusion); experiment: PPO enzyme inhibition (IC50), MBP-fused PPO; format: biochemical; settings: 50 μM protoporphyrinogen IX, pH 8.0, room temperature, 30 min
Method: as §1, §2, §3, §4

[14] = molecular target: Thermosynechococcus sp. NK55a PPO CyPPO17, wild type, SEQ ID NO: 3 (MBP fusion); experiment: PPO enzyme inhibition (IC50), MBP-fused PPO; format: biochemical; settings: 50 μM protoporphyrinogen IX, pH 8.0, room temperature, 30 min
Method: as §1, §2
as §3, with “Overall” for “Since protoporphyrinogen IX, a substrate of PPO protein, was not commercially available, it was chemically synthesized in the laboratory. Overall”, “minutes.” for “minutes. The protoporphyrinogen IX solution was filtered using syringe and cellulose membrane filter.”
as §4

[15] = molecular target: Thermosynechococcus sp. NK55a PPO CyPPO17 (SEQ ID NO: 3) variant R88A (MBP fusion); experiment: PPO enzyme inhibition (IC50), MBP-fused PPO; format: biochemical; settings: 50 μM protoporphyrinogen IX, pH 8.0, room temperature, 30 min
Method: as §1, §2
as §3, with “Overall” for “Since protoporphyrinogen IX, a substrate of PPO protein, was not commercially available, it was chemically synthesized in the laboratory. Overall”, “minutes.” for “minutes. The protoporphyrinogen IX solution was filtered using syringe and cellulose membrane filter.”
as §4

[16] = molecular target: Thermosynechococcus sp. NK55a PPO CyPPO17 (SEQ ID NO: 3) variant A166L (MBP fusion); experiment: PPO enzyme inhibition (IC50), MBP-fused PPO; format: biochemical; settings: 50 μM protoporphyrinogen IX, pH 8.0, room temperature, 30 min
Method: as §1, §2
as §3, with “Overall” for “Since protoporphyrinogen IX, a substrate of PPO protein, was not commercially available, it was chemically synthesized in the laboratory. Overall”, “minutes.” for “minutes. The protoporphyrinogen IX solution was filtered using syringe and cellulose membrane filter.”
as §4

[17] = molecular target: Thermosynechococcus sp. NK55a PPO CyPPO17 (SEQ ID NO: 3) variant L326T (MBP fusion); experiment: PPO enzyme inhibition (IC50), MBP-fused PPO; format: biochemical; settings: 50 μM protoporphyrinogen IX, pH 8.0, room temperature, 30 min
Method: as §1, §2
as §3, with “Overall” for “Since protoporphyrinogen IX, a substrate of PPO protein, was not commercially available, it was chemically synthesized in the laboratory. Overall”, “minutes.” for “minutes. The protoporphyrinogen IX solution was filtered using syringe and cellulose membrane filter.”
as §4

[18] = molecular target: Thermosynechococcus sp. NK55a PPO CyPPO17 (SEQ ID NO: 3) variant V164C (MBP fusion); experiment: PPO enzyme inhibition (IC50), MBP-fused PPO; format: biochemical; settings: 50 μM protoporphyrinogen IX, pH 8.0, room temperature, 30 min
Method: as §1, §2
as §3, with “Overall” for “Since protoporphyrinogen IX, a substrate of PPO protein, was not commercially available, it was chemically synthesized in the laboratory. Overall”, “minutes.” for “minutes. The protoporphyrinogen IX solution was filtered using syringe and cellulose membrane filter.”
as §4

[19] = molecular target: Thermosynechococcus sp. NK55a PPO CyPPO17 (SEQ ID NO: 3) variant V304M (MBP fusion); experiment: PPO enzyme inhibition (IC50), MBP-fused PPO; format: biochemical; settings: 50 μM protoporphyrinogen IX, pH 8.0, room temperature, 30 min
Method: as §1, §2
as §3, with “Overall” for “Since protoporphyrinogen IX, a substrate of PPO protein, was not commercially available, it was chemically synthesized in the laboratory. Overall”, “minutes.” for “minutes. The protoporphyrinogen IX solution was filtered using syringe and cellulose membrane filter.”
as §4

COC(=O)CCNC(=O)C(C)Sc1cc(-n2c(=O)cc(C(F)(F)F)n(C)c2=O)c(F)cc1Cl (stereo not shown) [tiafenacil]
Plant damage after herbicide spray [1]: no damage
IC50 [2]: 40 nM
IC50 [3]: 26 nM
IC50 [4]: 103 nM
IC50 [5]: 43 nM
IC50 [6]: 152 nM
IC50 [7]: 219 nM
IC50 [8]: 79 nM
IC50 [9]: 115 nM
IC50 [10]: 60 nM
IC50 [11]: 193 nM
IC50 [12]: 45 nM
IC50 [13]: 119 nM
IC50 [14]: 44 nM
IC50 [15]: 152 nM
IC50 [16]: 1130 nM
IC50 [17]: 194 nM
IC50 [18]: 87 nM
IC50 [19]: 102 nM
